The values that follow are results of earlier work, collected in patent US9408814B2, “Modified release dosage form comprising desvenlafaxine or salts thereof” (WOCKHARDT LIMITED, priority 2010, dated 2016).

Read-outs that look alike come from different tables or passages of the source.

Test in series [1]: not given
This is another data set of the same source.

The conditions of series [2]: at pH 7.0.

The term pKa denotes the pH at which an ionisable group is half protonated. Take `CN(C)CC(c1ccc(O)cc1)C1(O)CCCCC1` (stereo not shown) [Desvenlafaxine succinate]: the pKa (dimethylamino group) is reported as 8.34 and the pKa (phenolic group) is 10.11. The “pH dependence of solubility” value in series [1] (solubility increases at lower pH) is recorded as “pH dependent”. For the same compound, the solubility in water result in series [1] (water) is listed as “soluble in water”. Besides, in series [2], the “octanol:aqueous system partition coefficient” value is given as 0.21.

`CN(C)CC(c1ccc(O)cc1)C1(O)CCCCC1.O=C(O)CCC(=O)O` (stereo not shown) [Desvenlafaxine, RS-4-[2-dimethylamino-1-(1-hydroxycyclohexyl)ethyl]phenol]: the “solubility at gastric pH” value in series [1] (gastric pH) is listed as “relatively good solubility”. In series [1] (intestinal pH), the “solubility at intestinal pH” value is “poor solubility”.
